From patent publication US11248023B2 (NEURACLE SCIENCE CO., LTD., priority 2015, dated 2022)
Square brackets hold non-standard residues; d marks the D form. Peptide text beside a SMILES is read from it. * marks the point of attachment. Fmoc = O=C(OCC1c2ccccc2-c2ccccc21)*; PEG = not defined here

Tests used:
[1] = Dietary intake and body weight change after intracerebroventricular administration; assay type: in vivo, mice
Experimental: C57BL/6J black male mice (9 weeks of age) were acquired from Orientbio (www.orient.co.kr). Mice were housed in a cage at 20-24° C. and 40-70% relative humidity under a normal 12:12 light-dark cycle (lights onset at 8:00 am), with food and water available ad libitum. All experiments were designed to minimize the number of animals. Animals were anesthetized to minimize their suffering in accordance with the Guidelines for Ethical Care and Use of Experimental Animals, which were approved by the institutional animal care and use committee of Korea University. For intracerebroventricular injection, mice were anesthetized with sodium pentobarbital (50 mg/kg, i.p.), mounted on a stereotaxic apparatus, and implanted with a 26-gauge stainless steel cannula into the right side of the lateral ventricle. Two jewelry screws were implanted into the skull as anchors, and the whole assembly was affixed to the skull with dental cement. Mice were recovered at least 2 weeks before experimentation. The GALR2 agonist was administered using a Hamilton syringe at a rate of 0.5 μl/min. Dietary intakes and weight changes were determined by measuring the weights of feed and mice before agonist administration, measuring the weights of the feed over 1, 2, 4, 12, and 24 h, and comparing the weight of mice after 24 h with the initial weight.
The effects of the GALR2 agonist on feeding behaviors and changes in body weight were investigated by the following procedure. First, a cannula was inserted into the third ventricle.

GALR2 = molecular target: T1, GALR2 (Homo sapiens, UniProt O43603); assay: SRE-luc assay in HEK293-Gqi cells expressing GALR2; assay type: cell-based; details: GALR2 versus GALR3
T1 construct: expressed in transfected cells
T1 sequence (O43603 1-387): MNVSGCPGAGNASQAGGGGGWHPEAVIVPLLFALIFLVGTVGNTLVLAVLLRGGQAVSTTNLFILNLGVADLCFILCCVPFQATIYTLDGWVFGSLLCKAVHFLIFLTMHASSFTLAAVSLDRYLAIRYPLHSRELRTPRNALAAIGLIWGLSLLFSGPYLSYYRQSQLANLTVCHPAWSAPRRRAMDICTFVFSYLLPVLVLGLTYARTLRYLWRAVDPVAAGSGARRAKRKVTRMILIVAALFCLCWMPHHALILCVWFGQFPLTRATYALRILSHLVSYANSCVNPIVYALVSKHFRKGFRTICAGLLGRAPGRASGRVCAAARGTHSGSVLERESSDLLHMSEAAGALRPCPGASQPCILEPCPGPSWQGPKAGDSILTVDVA
Excerpt: The HEK293-Gqi stable cell line is a cell line in which the C-terminus of Gq is substituted with 3 amino acids of G to convert the signals of G to Gq signaling pathways. […] GALR subtypes 1 and 3 induce inhibitory G-coupled signaling, while GALR subtype 2 triggers stimulatory Gq-coupled signaling. This difference explains the use of the HEK293-Gqi stable cell line in which the C-terminus of Gq is substituted with 3 amino acids of G to convert the signals of Gi to Gq signaling pathways.
GALR subtypes 1 and 3 induce inhibitory G-coupled signaling, while GALR subtype 2 triggers stimulatory Gq-coupled signaling. This difference explains the use of the HEK293-Gqi stable cell line in which the C-terminus of Gq is substituted with 3 amino acids of G to convert the signals of G to Gq signaling pathways. The activities of the receptors were measured using an SRE-luc assay system designed to express luciferase (luc) by serum responsive element (SRE) promoters. Light caused by a reaction between expressed luciferase and luciferin as a substrate was detected using a luminometer so that receptor subtype-specific or ligand-specific cellular activities were observed. One day after HEK293-Gqi cells were seeded in 48-well plates at a density of 2×10^4 cells/well, plasmid DNA and SRE-luc plasmid DNA, which encode GALR2 and GALR3, respectively, were mixed in a ratio of 1:1 (75 ng+75 ng)/well, and treated with Effectene reagent (2 μl/well). After 3 h, media were replaced with DMEM media supplemented with 10% FBS. After 24 h, the DMEM media were replaced with FBS-free DMEM media. After 16 h, each constructed spexin-based mutant peptide was further incubated at 37° C. for 6 h. After this stage was finished, cells were washed with PBS and lysed by the addition of 100 μl of lysis buffer (0.1% triton X-100, 0.2M Tris, pH 8.0) at room temperature for 20 min. The luciferase activity was determined using a synergy 2 Multi-mode microplate reader (BioTek, Winooski, Vt., USA) with automatic injection of a luciferin solution (0.5 M MgCl2, 0.1 M ATP, 0.05 M D-luciferin, 1 M KH2PO4, pH 7.8).

[2] = Stability in 100% fetal bovine serum, residual potency via IP3 production in GALR2-expressing cells; details: 37° C., 0-72 h, IP3 production in GALR2-expressing cells
Experimental: The stability of the spexin-based mutant peptides was investigated. To this end, first, each modified mutant peptide at an initial concentration 10 μM was allowed to react in 100% fetal bovine serum (FBS) at 37° C. for 0, 3, 6, 12, 24, 48, and 72 h. Thereafter, the potencies of the mutant peptide toward GALR2 were determined via inositol 1,4,5-triphosphate (IP3) production in GALR2-expressing cells. For the IP3 assay, cells were seeded in 12-well plates at a density of 2.5×10^5 cells/well and then the next day, cells were treated with a mixture of 1 μg of GALR2-encoding plasmid DNA and Lipofectamine 2000 (Invitrogen). On day following treatment, cells were incubated in M199 media containing 1% FBS, 1% L-glutamine, 1% antibiotic, and myo-^3H inositol 1 μCi/well for 20 h to radioactively label inositol phosphate. After this stage was finished, cells were allowed to react in buffer A (140 mM NaCl, 20 mM Hepes, 4 mM KCl, 8 mM D-glucose, 1 mM MgCl2, 1 mM CaCl2), 1 mg/ml free fatty acid bovine serum albumin, and 10 mM LiCl at pH 7.2) for 30 min. After the mutant peptide was allowed to react in 100% FBS, cells were treated with the mutant peptide for 40 min at 37° C. Media was removed, and reactions were terminated by addition of 1 ml of 10 mM cold formic acid to each well. The plates were allowed to stand at 4° C. for 30 min. Then, the resulting extracts were transferred to 6-mL plastic tubes containing 500 μl AG1-8X anion exchange columns. The tubes were gently mixed with a vortexer, and the supernatants were removed from the labeled mixture. Two washes with 1 ml of triple-distilled water were performed followed by two additional washes with 60 mM ammonium formate/5 mM sodium tetraborate. The radioactively labeled mixture was eluted from the column with 1 ml of 1 M ammonium formate/0.1 M formic acid (1 mL), and 800 μl from the elution were taken from each tube and transferred into scintillation vials. Then, 2 ml of scintillation cocktail solution (Ultima Gold™, Perkin Elmer, Waltham Mass., USA) was added to each sample. The radioactivity of the mixture solution of the radioactively labeled mixture and the scintillation cocktail solution was measured using a TRI carb 2100TR liquid scintillation analyzer (Packard).

[3] = system: neurons in the amygdala and arcuate nucleus; assay: Neuron activity after nasal inhalation of GALR2 agonist; assay type: in vivo, mice; details: 8 μg nasal inhalation, 1-2 h; like intracerebroventricular injection
Experimental: 1-2 h after nasal inhalation, the results were recorded. The results of nasal inhalation were compared with those of intracerebroventricular injection.

[4] = Open field test (OFT) in anxiety-induced mice; assay type: in vivo; details: vs DMSO
Excerpt: The effect of the GALR2 agonist on anxiety reduction was investigated by the OFT for simultaneously measuring movement and anxiety (FIG. 13). The OFT is based on the behavior of mice that prefer to stay at the periphery rather than at the center of a quadrangular area. After mice were placed at the center of a quadrangular area, the proportion of the time spent in the center (“% time in center”), the proportion of the moving distance in the center (“% distance in center”), and the total moving distance (“total distance”) were measured for 10 min from the time when the animals moved to the periphery. The results were divided into two equal periods (5 min each) for analysis. 2-3 h after 4 μg of DMSO as a control or the GALR2 agonist dN1-Qu was administered to the lateral ventricle of animals, which had previously been evoked by repeated electric shocks to induce anxiety, anxiety and movement were measured.

[5] = Sucrose preference test (SPT); assay type: in vivo, mice; details: 2 days
Experimental: The effect of the GALR2 agonist dN1-Qu on addiction reduction was investigated. In the same manner as in Example 3, a cannula was inserted into the lateral ventricle of mice. After injection of dimethyl sulfoxide (DMSO) and 0.4, 4, and 40 μg of dN1-Qu, the consumptions of water and 1% sucrose solution were measured for 2 days by the sucrose preference test (SPT) for addiction evaluation. According to this test, tap water and sucrose solution were filled in respective bottles and weighed before injection of the agonist. After free access to the fluids for 2 days, the bottles were weighed to compare the total consumption of the fluids and the percentage of the consumed sucrose solution in the total fluid consumption.

[6] = system: neurons in the arcuate nucleus; assay: c-fos immunohistochemistry, arcuate nucleus, after ventricular administration; assay type: in vivo, mice; details: 0.4, 4, and 40 μg to the ventricle, 1 h
[7] = Elevated plus maze (EPM) test; assay type: in vivo, mice; details: 4 μg lateral ventricle, 2-3 h after administration, vs DMSO
Experimental: The effect of the GALR2 agonist dN1-Qu on recovery from anxiety disorder was investigated. In the same manner as in Example 3, a cannula was inserted into the lateral ventricle of mice. 2-3 h after dimethyl sulfoxide (DMSO) as a control or 4 μg of the GALR2 agonist dN1-Qu as an experimental group was administered, the elevated plus maze (EPM) test was conducted to measure anxiety/obsession. The EPM test uses a cross-shaped maze elevated above the floor with closed arms, open arms, and a center and is based on the behavior of mice that prefer to remain in the closed arms. Anxiety is judged to be lower when a larger number of mice remain in the open arms. After mice was placed on the plus maze, the time spent in the open arms (“time in open arm”), the number of mice entering the open arms (“number of open arm entry”), and the total movement (“number of center crossing”) were measured for the first 15 min. The results for the last 10 min were used for analysis.

neurons in the amygdala = assay: c-fos immunohistochemistry, amygdala and other brain regions; assay type: in vivo, mice; details: 0.4, 4, and 40 μg to the ventricle, 1-2 h
Experimental: Then, the brain was placed in a mold for brain tissue, transferred to and frozen in an isopentane solution kept cold on dry ice with an OCT composite containing 30% sucrose solution, and stored at −80° C. before use. The frozen brain tissue was sliced at 40 μm using a cryostat microtome, followed by immunohistochemistry.

POMC neurons = assay: Signaling, POMC expression and α-MSH in cultured POMC neurons (Western blotting, mRNA); assay type: cell-based; details: Fmoc sextuple mutant 1 μM, insulin 10 nM
Experimental: An increase in the potency of appetite-regulating brain neurons by administration of the GALR2 agonist was determined by immunohistochemistry (IHC). […] POMC neurons known to regulate appetite in the arcuate nucleus were cultured in vitro, treated with the Fmoc sextuple mutant (1 μM) and 10 nM insulin, washed with PBS, and lysed by the addition of 100 μl of lysis buffer (0.1% triton X-100, 0.2M Tris, pH 8.0) at room temperature for 20 min.
Proteins were extracted from cells and analyzed by Western blotting. […] POMC neurons were treated the GALR2 agonist and mRNA was then extracted. Increases in the number of the POMC neurons and the level of α-MSH were observed (FIGS. 11B to 11E).

[8] = concentrations of 0.5, 1, and 3
[9] = 3 μg into the third ventricle, 24 h, compared to spexin-administered mice and control

PEG-NWTdANAALYLFGPdQ-NH2 ({PEG}-NWT[dA]NAALYLFGP[dQ]-NH2; reading uncertain) [PEG-se]
effect on dietary intake after GALR2 antagonist M871 ([1]; 3 μg following 10 μg of M871): disappeared
effect on weight loss after GALR2 antagonist M871 ([1]; 3 μg following 10 μg of M871): disappeared
dietary intake [1, 8]: dietary intakes and weight losses were observed
weight loss [1, 8]: dietary intakes and weight losses were observed
specificity for GALR2 (GALR2): specificity for GALR2
stability in serum (100% FBS) [2]: increased stability
activity of neurons in the amygdala and arcuate nucleus [3]: increase the activity of neurons

CC(C)C[C@H](NC(=O)[C@H](C)NC(=O)[C@H](C)NC(=O)[C@H](CC(N)=O)NC(=O)[C@@H]1CCCN1C(=O)[C@@H](NC(=O)[C@H](Cc1c[nH]c2ccccc12)NC(=O)[C@H](N)CC(N)=O)[C@@H](C)O)C(=O)N[C@@H](Cc1ccc(O)cc1)C(=O)N[C@@H](CC(C)C)C(=O)N[C@@H](Cc1ccccc1)C(=O)NCC(=O)N1CCC[C@H]1C(=O)N[C@@H](CCC(N)=O)C(N)=O [dN1-Qu] (H-[dN]WTPNAALYLFGPQ-NH2)
% distance in center ([4]; first 5-min period): increased
total distance ([4]; first 5-min period): no difference
% distance in center ([4]; second 5-min period): increased
change in body weight [1, 9]: weight loss was effectively induced
dietary intake [1, 9]: significantly decreased
total consumption of the fluids [5]: no difference
consumption of sucrose ([5]; 1% sucrose solution): considerably reduced
sucrose preference (consumed sucrose solution in total fluid consumption) ([5]; 1% sucrose, 0.4, 4, and 40 μg lateral ventricle, control ~70%): ≤ 60%
specificity for GALR2 (GALR2): specificity for GALR2
c-fos expressing neurons in the arcuate nucleus [6]: increase in the number of c-fos expressing neurons
stability in serum (100% FBS) [2]: increased stability
number of center crossing [7]: no difference
number of open arm entry [7]: increased
time in open arm [7]: increased
c-fos expressing neurons in the amygdala (neurons in the amygdala): increase in the number of c-fos expressing neurons
neurons in other emotion-regulating brain regions (neurons in the amygdala): not activated

insulin [reference compound]
AKT phosphorylation (POMC neurons): phosphorylated
ERK phosphorylation (POMC neurons): phosphorylated

CC(C)C[C@H](NC(=O)[C@H](C)NC(=O)[C@H](C)NC(=O)[C@H](CC(N)=O)NC(=O)[C@@H](C)NC(=O)[C@@H](NC(=O)[C@H](Cc1c[nH]c2ccccc12)NC(=O)[C@H](CC(N)=O)NC(=O)OCC1c2ccccc2-c2ccccc21)[C@@H](C)O)C(=O)N[C@@H](Cc1ccc(O)cc1)C(=O)N[C@@H](CC(C)C)C(=O)N[C@@H](Cc1ccccc1)C(=O)NCC(=O)N1CCC[C@H]1C(=O)N[C@H](CCC(N)=O)C(N)=O [Fmoc-se] (Fmoc-NWT[dA]NAALYLFGP[dQ]-NH2)
AKT phosphorylation (POMC neurons): only the ERK pathway was phosphorylated
ERK phosphorylation (POMC neurons): phosphorylated
specificity for GALR2 (GALR2): specificity for GALR2
stability in serum (100% FBS) [2]: increased stability
